From patent US10894817B2, “Fatty acid modified urocortin-2 analogs for the treatment of diabetes and chronic kidney disease” (priority 2016, dated 2021)
Read-outs that look alike come from different tables or passages of the source. Starred links: 1 amine or outer side, 2 acyl side, 3 side chain; linkers in the order of their positions; H or OH if unused. Residues, ends and D or L forms follow the SMILES beside them. Groups on a side chain read outwards from the residue. *: point of attachment. C18 diacid = O=C(O)CCCCCCCCCCCCCCCCC(=O)*; γGlu = O=C(O)[C@H](CCC(=O)[*:2])N[*:1]; Palmitoyl = CCCCCCCCCCCCCCCC(=O)*; AEEA = NCCOCCOCC(=O)O

Biological target: T1, human CRHR2b (Homo sapiens, UniProt Q13324)
T1 construct: expressed in transfected cells; host or cells: Chinese Hamster Ovary (CHO) cells, transient transfection
T1 sequence (Q13324 1-438 isoform Q13324-2): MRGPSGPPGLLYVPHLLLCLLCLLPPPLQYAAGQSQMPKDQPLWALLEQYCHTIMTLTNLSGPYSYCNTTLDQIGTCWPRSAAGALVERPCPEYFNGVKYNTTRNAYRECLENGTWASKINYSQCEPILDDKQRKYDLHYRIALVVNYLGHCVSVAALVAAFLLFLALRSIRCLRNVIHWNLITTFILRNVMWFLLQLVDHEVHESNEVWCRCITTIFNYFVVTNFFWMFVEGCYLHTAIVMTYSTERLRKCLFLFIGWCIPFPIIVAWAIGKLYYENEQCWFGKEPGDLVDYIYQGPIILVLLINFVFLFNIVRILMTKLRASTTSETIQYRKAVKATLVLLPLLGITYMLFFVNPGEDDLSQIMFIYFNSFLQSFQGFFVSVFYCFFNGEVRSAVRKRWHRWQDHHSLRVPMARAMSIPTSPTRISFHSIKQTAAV
Test: human CRHR2b cell-based cAMP assay
Method in brief: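 ED50 values are means ± SEM over several runs, curve-fitted from cAMP in pmol, calibrated against unlabeled-cAMP standards. Detection was HTRF competition, ratio 665/620 nm, after 30 min agonist exposure at 37 °C.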

[1] = cAMP assay, Table 26, compounds of Example 9, read-out: hCRHR2b Average EC50

| SMILES | EC50 [1] | EC50 |
| --- | --- | --- |
| CC[C@H](C)[C@H](N)C(=O)N[C@H](C(=O)N[C@@H](CC(C)C)C(=O)N[C@@H](CO)C(=O)N[C@@H](CC(C)C)C(=O)N[C@@H](CC(=O)O)C(=O)N[C@H](C(=O)N1CCC[C@H]1C(=O)N[C@H](C(=O)NCC(=O)N[C@@H](CC(C)C)C(=O)N[C@@H](CC(C)C)C(=O)N[C@@H](CCC(N)=O)C(=O)N[C@H](C(=O)N[C@@H](CC(C)C)C(=O)N[C@@H](CC(C)C)C(=O)N[C@@H](CCCCNC(=O)COCCOCCNC(=O)COCCOCCNC(=O)CC[C@H](NC(=O)CC[C@H](NC(=O)CCCCCCCCCCCCCCCCC(=O)O)C(=O)O)C(=O)O)C(=O)N[C@@H](CCC(N)=O)C(=O)N[C@@H](CCC(=O)O)C(=O)N[C@@H](CCCCN)C(=O)N[C@@H](CCC(N)=O)C(=O)N[C@@H](CCC(=O)O)C(=O)N[C@@H](CCCCN)C(=O)N[C@@H](CCC(=O)O)C(=O)N[C@@H](CCCCN)C(=O)N[C@@H](CCC(N)=O)C(=O)N[C@@H](CCC(N)=O)C(=O)N[C@@H](C)C(=O)N[C@H](C(=O)N[C@H](C(=O)N[C@@H](CC(N)=O)C(=O)N[C@@H](C)C(=O)N[C@@H](CCC(N)=O)C(=O)N[C@H](C(=O)N[C@@H](CC(C)C)C(=O)N[C@@H](C)C(=O)N[C@@H](CCC(N)=O)C(=O)N[C@H](C(N)=O)C(C)C)[C@@H](C)CC)[C@@H](C)O)[C@@H](C)O)[C@@H](C)CC)[C@@H](C)CC)C(C)C)C(C)C [Compound 50] (H-IVLSLDVPIGLLQILLK([AEEA-AEEA-γGlu-γGlu-C18 diacid])QEKQEKEKQQATTNAQILAQV-NH2) | – | 3.56 nM |
| CC[C@H](C)[C@H](N)C(=O)N[C@H](C(=O)N[C@@H](CC(C)C)C(=O)N[C@@H](CO)C(=O)N[C@@H](CC(C)C)C(=O)N[C@@H](CC(=O)O)C(=O)N[C@H](C(=O)N1CCC[C@H]1C(=O)N[C@H](C(=O)NCC(=O)N[C@@H](CC(C)C)C(=O)N[C@@H](CC(C)C)C(=O)N[C@@H](CCC(N)=O)C(=O)N[C@H](C(=O)N[C@@H](CC(C)C)C(=O)N[C@@H](CC(C)C)C(=O)N[C@@H](CCC(=O)O)C(=O)N[C@@H](CCC(N)=O)C(=O)N[C@@H](CCC(=O)O)C(=O)N[C@@H](CCCCN)C(=O)N[C@@H](CCC(N)=O)C(=O)N[C@@H](CCC(=O)O)C(=O)N[C@@H](CCCCN)C(=O)N[C@@H](CCC(=O)O)C(=O)N[C@@H](CCCCN)C(=O)N[C@@H](CCCCNC(=O)COCCOCCNC(=O)COCCOCCNC(=O)CC[C@H](NC(=O)CC[C@H](NC(=O)CCCCCCCCCCCCCCCCC(=O)O)C(=O)O)C(=O)O)C(=O)N[C@@H](CCC(N)=O)C(=O)N[C@@H](C)C(=O)N[C@H](C(=O)N[C@H](C(=O)N[C@@H](CC(N)=O)C(=O)N[C@@H](C)C(=O)N[C@@H](CCC(N)=O)C(=O)N[C@H](C(=O)N[C@@H](CC(C)C)C(=O)N[C@@H](C)C(=O)N[C@@H](Cc1c[nH]cn1)C(=O)N[C@H](C(N)=O)C(C)C)[C@@H](C)CC)[C@@H](C)O)[C@@H](C)O)[C@@H](C)CC)[C@@H](C)CC)C(C)C)C(C)C [Compound 47] (H-IVLSLDVPIGLLQILLEQEKQEKEKK([AEEA-AEEA-γGlu-γGlu-C18 diacid])QATTNAQILAHV-NH2) | 4.56 nM | – |
| CCCCCCCCCCCCCCCC(=O)N[C@@H](CCC(=O)N[C@@H](CCC(=O)NCCCC[C@H](NC(=O)[C@H](C)NC(=O)[C@H](CCC(N)=O)NC(=O)[C@H](CCC(N)=O)NC(=O)[C@H](CCCCN)NC(=O)[C@H](CCC(=O)O)NC(=O)[C@H](CCCCN)NC(=O)[C@H](CCC(=O)O)NC(=O)[C@H](CCC(N)=O)NC(=O)[C@H](CCCCN)NC(=O)[C@H](CCC(=O)O)NC(=O)[C@H](CCC(N)=O)NC(=O)[C@H](CCC(=O)O)NC(=O)[C@H](CC(C)C)NC(=O)[C@H](CC(C)C)NC(=O)[C@@H](NC(=O)[C@H](CCC(N)=O)NC(=O)[C@H](CC(C)C)NC(=O)[C@H](CC(C)C)NC(=O)CNC(=O)[C@@H](NC(=O)[C@@H]1CCCN1C(=O)[C@@H](NC(=O)[C@H](CC(=O)O)NC(=O)[C@H](CC(C)C)NC(=O)[C@H](CO)NC(=O)[C@H](CC(C)C)NC(=O)[C@@H](NC(=O)[C@@H](N)[C@@H](C)CC)C(C)C)C(C)C)[C@@H](C)CC)[C@@H](C)CC)C(=O)N[C@H](C(=O)N[C@@H](CC(N)=O)C(=O)N[C@@H](C)C(=O)N[C@@H](CCCNC(=N)N)C(=O)N[C@H](C(=O)N[C@@H](CC(C)C)C(=O)N[C@@H](C)C(=O)N[C@@H](CCCNC(=N)N)C(=O)N[C@H](C(N)=O)C(C)C)[C@@H](C)CC)[C@@H](C)O)C(=O)O)C(=O)O [Compound 38] (H-IVLSLDVPIGLLQILLEQEKQEKEKQQAK([γGlu-γGlu-Palmitoyl])TNARILARV-NH2) | 2.33 nM | – |
| CCCCCCCCCCCCCCCC(=O)N[C@@H](CCC(=O)NCCCC[C@H](NC(=O)[C@H](CCC(=O)O)NC(=O)[C@H](CCC(N)=O)NC(=O)[C@H](CCCCN)NC(=O)[C@H](CCC(=O)O)NC(=O)[C@H](CCC(N)=O)NC(=O)[C@H](CCC(=O)O)NC(=O)[C@H](CC(C)C)NC(=O)[C@H](CC(C)C)NC(=O)[C@@H](NC(=O)[C@H](CCC(N)=O)NC(=O)[C@H](CC(C)C)NC(=O)[C@H](CC(C)C)NC(=O)CNC(=O)[C@@H](NC(=O)[C@@H]1CCCN1C(=O)[C@@H](NC(=O)[C@H](CC(=O)O)NC(=O)[C@H](CC(C)C)NC(=O)[C@H](CO)NC(=O)[C@H](CC(C)C)NC(=O)[C@@H](NC(=O)[C@@H](N)[C@@H](C)CC)C(C)C)C(C)C)[C@@H](C)CC)[C@@H](C)CC)C(=O)N[C@@H](CCC(=O)O)C(=O)N[C@@H](CCCCN)C(=O)N[C@@H](CCC(N)=O)C(=O)N[C@@H](CCC(N)=O)C(=O)N[C@@H](C)C(=O)N[C@H](C(=O)N[C@H](C(=O)N[C@@H](CC(N)=O)C(=O)N[C@@H](C)C(=O)N[C@@H](CCCNC(=N)N)C(=O)N[C@H](C(=O)N[C@@H](CC(C)C)C(=O)N[C@@H](C)C(=O)N[C@@H](CCCNC(=N)N)C(=O)N[C@H](C(N)=O)C(C)C)[C@@H](C)CC)[C@@H](C)O)[C@@H](C)O)C(=O)O [Compound 28] (H-IVLSLDVPIGLLQILLEQEKQEK([γGlu-Palmitoyl])EKQQATTNARILARV-NH2) | 83.2 nM | – |

The next lines start with results.

| EC50 [1] | SMILES | EC50 |
| --- | --- | --- |
| 13.4 nM | CC[C@H](C)[C@H](N)C(=O)N[C@H](C(=O)N[C@@H](CC(C)C)C(=O)N[C@@H](CO)C(=O)N[C@@H](CC(C)C)C(=O)N[C@@H](CC(=O)O)C(=O)N[C@H](C(=O)N1CCC[C@H]1C(=O)N[C@H](C(=O)NCC(=O)N[C@@H](CC(C)C)C(=O)N[C@@H](CC(C)C)C(=O)N[C@@H](CCC(N)=O)C(=O)N[C@H](C(=O)N[C@@H](CC(C)C)C(=O)N[C@@H](CC(C)C)C(=O)N[C@@H](CCC(=O)O)C(=O)N[C@@H](CCCCNC(=O)COCCOCCNC(=O)COCCOCCNC(=O)CC[C@H](NC(=O)CC[C@H](NC(=O)CCCCCCCCCCCCCCCCC(=O)O)C(=O)O)C(=O)O)C(=O)N[C@@H](CCC(=O)O)C(=O)N[C@@H](CCCCN)C(=O)N[C@@H](CCC(N)=O)C(=O)N[C@@H](CCC(=O)O)C(=O)N[C@@H](CCCCN)C(=O)N[C@@H](CCC(=O)O)C(=O)N[C@@H](CCCCN)C(=O)N[C@@H](CCC(N)=O)C(=O)N[C@@H](CCC(N)=O)C(=O)N[C@@H](C)C(=O)N[C@H](C(=O)N[C@H](C(=O)N[C@@H](CC(N)=O)C(=O)N[C@@H](C)C(=O)N[C@@H](CCC(N)=O)C(=O)N[C@H](C(=O)N[C@@H](CC(C)C)C(=O)N[C@@H](C)C(=O)N[C@@H](Cc1c[nH]cn1)C(=O)N[C@H](C(N)=O)C(C)C)[C@@H](C)CC)[C@@H](C)O)[C@@H](C)O)[C@@H](C)CC)[C@@H](C)CC)C(C)C)C(C)C [Compound 44] (H-IVLSLDVPIGLLQILLEK([AEEA-AEEA-γGlu-γGlu-C18 diacid])EKQEKEKQQATTNAQILAHV-NH2) | – |
| 2.86 nM | CC[C@H](C)[C@H](N)C(=O)N[C@H](C(=O)N[C@@H](CC(C)C)C(=O)N[C@@H](CO)C(=O)N[C@@H](CC(C)C)C(=O)N[C@@H](CC(=O)O)C(=O)N[C@H](C(=O)N1CCC[C@H]1C(=O)N[C@H](C(=O)N[C@@H](CCCCNC(=O)COCCOCCNC(=O)COCCOCCNC(=O)CC[C@H](NC(=O)CC[C@H](NC(=O)CCCCCCCCCCCCCCCCC(=O)O)C(=O)O)C(=O)O)C(=O)N[C@@H](CC(C)C)C(=O)N[C@@H](CC(C)C)C(=O)N[C@@H](CCC(N)=O)C(=O)N[C@H](C(=O)N[C@@H](CC(C)C)C(=O)N[C@@H](CC(C)C)C(=O)N[C@@H](CCC(=O)O)C(=O)N[C@@H](CCC(N)=O)C(=O)N[C@@H](CCC(=O)O)C(=O)N[C@@H](CCCCN)C(=O)N[C@@H](CCC(N)=O)C(=O)N[C@@H](CCC(=O)O)C(=O)N[C@@H](CCCCN)C(=O)N[C@@H](CCC(=O)O)C(=O)N[C@@H](CCCCN)C(=O)N[C@@H](CCC(N)=O)C(=O)N[C@@H](CCC(N)=O)C(=O)N[C@@H](C)C(=O)N[C@H](C(=O)N[C@H](C(=O)N[C@@H](CC(N)=O)C(=O)N[C@@H](C)C(=O)N[C@@H](CCC(N)=O)C(=O)N[C@H](C(=O)N[C@@H](CC(C)C)C(=O)N[C@@H](C)C(=O)N[C@@H](CCC(N)=O)C(=O)N[C@H](C(N)=O)C(C)C)[C@@H](C)CC)[C@@H](C)O)[C@@H](C)O)[C@@H](C)CC)[C@@H](C)CC)C(C)C)C(C)C [Compound 49] (H-IVLSLDVPIK([AEEA-AEEA-γGlu-γGlu-C18 diacid])LLQILLEQEKQEKEKQQATTNAQILAQV-NH2) | – |
